Laboratory results: patent US20080254462A1, “ALTERED ZDHHC8 EXPRESSION AS A MARKER OF INCREASED RISK OF SCHIZOPHRENIA” (priority 2005, published 2008)

Legend:
[1] = system: homozygous Zdhhc8 mutant mice and wild-type littermate controls; experiment: Locomotor activating effects of MK801 in the open field; type: in vivo
Method: Open field assay. Animals were not pre-exposed to the chamber before testing. Activity was monitored in a clear acrylic chamber directly illuminated and equipped with infrared sensors for the automatic recording of horizontal and vertical activity (Colbourn Instruments). Each animal was placed initially in the periphery of the chamber, and recordings of the total distance traveled, the number of rearings (vertical moves) and the number of entries in the centerfield over the next 15 min were used as a measure of a locomotor response to novelty. 47 female mice (17 homozygous Zdhhc8 mutant, 17 heterozygous Zdhhc8 mutant and 13 wild-type littermate controls) and 45 male mice (13 homozygous Zdhhc8 mutant, 19 heterozygous Zdhhc8 mutant and 13 wild-type littermate controls) were tested.
Drug administration. MK801 was purchased from Sigma. Each experimental group consisted of 8-10 mice, which received the same number of injections, administered intraperitoneally, of either drug (0.4 mg per kg body weight) or vehicle. After 30 minutes of prehabituation in the open field, the mice were removed, injected and then left to rest for 10 minutes in their home cage before returning them to the open field arena, where they were monitored for an additional 30 minutes. […]

[2] = system: PSD95 (Post-Synaptic Density-95)

Row | Molecule | Sensitivity to MK801-induced stimulation of locomotor activity (ratio of activity after injection to activity before injection) ([1]; homozygous Zdhhc8 mutant female mice vs wild-type littermate controls, 0.4 mg per kg intraperitoneally, P=0.05, not in males) | Locomotor stimulation after MK801 injection ([1]; open field, 0.4 mg per kg body weight intraperitoneally, 30 minutes before and 30 minutes after injection, both genotypes, females and males) | metabolic labeling assay (palmitoylation of PSD95) [2]
1 | C[C@]12N[C@H](Cc3ccccc31)c1ccccc12 [MK801, dizocilpine] | somewhat less sensitive to MK801-induced stimulation of locomotor activity than wild-type littermate controls | Locomotor stimulation after MK801 injection was observed in both genotypes in both females (E) and males (F) | –
2 | ZDHHC8 mutant "230" (lacks the entire C-terminal domain) | – | – | this form shows no essentially no activity when compared with vector-only control
